Values after ≈ are worked out from the molar mass of the structure shown.
Assays:
Test in all cases: in vitro antibacterial evaluation, MIC by broth dilution
Format in all cases: cell-based
[1] = system: Staphylococcus sp.; conditions: broth dilution, 18 hours at 35° C.
Procedure, shortened: (§1)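 Broth dilution per NCCLS standard M7-A2 in Muller-Hinton II […], with an inoculum of 5×10^5 CFU/mL and antibiotic spanning 64-0.06 μg/mL. The MIC is the lowest concentration that inhibits growth of the organism.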

[2] = system: Streptococcus sp.; conditions: broth dilution, 18 hours at 35° C.
Procedure, shortened: as §1

[3] = system: Enterococcus sp.; conditions: broth dilution, 18 hours at 35° C.
Procedure, shortened: as §1

[4] = system: Escherichia coli; conditions: 18 hours at 35° C.
Procedure, shortened: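 Broth dilution in Muller-Hinton II medium per NCCLS standard M7-A2, with an inoculum of 5×10^5 CFU/mL and antibiotic tested over 64-0.06 μg/mL. MIC was taken as the lowest concentration inhibiting visible growth.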

CC(c1ccccc1)C1NC(=O)CNC(=O)C(CO)NC(=O)C(C(O)C2CN(c3ncccn3)C(=N)N2C2OC(CO)C(O)C(O)C2O)NC(=O)C(C(O)C2CNC(=Nc3ncccn3)N2)NC(=O)C(Cc2ccc(OC3OC(CO)C(OC4OC(CO)C(O)C(O)C4O)C(O)C3O)cc2)NC1=O (stereo not drawn) [Example 92, Cyclo[glycyl-β-methylphenylalanyl-O-(4-O-hexolpyranosylhexopyranosyl)tyrosyl-3-[2-(pyrimidin-2-ylimino)imidazolidin-4-yl]seryl-3-[3-hexopyranosyl-2-imino-1-(pyrimidin-2-yl)imidazolidin-4-yl]serylseryl]] was tested, and the “MIC Coagulase Negative Staphylococcus (GC 4547)” value [1] was greater than 128 µg/mL, the “MIC Coagulase Negative Staphylococcus (GC 4548)” value [1] was greater than 128 µg/mL and the “MIC Coagulase Negative Staphylococcus (GC 4549)” value [1] was greater than 128 µg/mL. For the same compound, the “MIC Coagulase Negative Staphylococcus (GC 4551)” value [1] was greater than 128 µg/mL, the “MIC Staphylococcus aureus-SMITH (GC 4543)” value [1] was greater than 128 µg/mL and the “MIC Staphylococcus haemolyticus (GC 4546)” value [1] was greater than 128 µg/mL. The “MIC Staphylococcus aureus (ATCC 29213)” value ([1]; strain ATCC 29213) was greater than 128 µg/mL, the “MIC Staphylococcus aureus (GC 1131)” value ([1]; strain GC 1131) was greater than 128 µg/mL and the “MIC Staphylococcus aureus (GC 3051)” value ([1]; strain GC 3051) was greater than 128 µg/mL. For the same compound, the “MIC Staphylococcus aureus (GC 3053)” value ([1]; strain GC 3053) was greater than 128 µg/mL, the “MIC Staphylococcus aureus (GC 4541)” value ([1]; strain GC 4541) was greater than 128 µg/mL and the “MIC Staphylococcus aureus (GC 4542)” value ([1]; strain GC 4542) was greater than 128 µg/mL. The “MIC Staphylococcus aureus-SMITH (GC 4543)” value ([1]; strain GC 4543) was greater than 128 µg/mL, the “MIC Staphylococcus aureus (GC 4544)” value ([1]; strain GC 4544) was greater than 128 µg/mL and the “MIC Staphylococcus aureus (GC 4545)” value ([1]; strain GC 4545) was greater than 128 µg/mL. For the same compound, the “MIC Staphylococcus haemolyticus (GC 4546)” value ([1]; strain GC 4546) was greater than 128 µg/mL, the “MIC Coagulase Negative Staphylococcus (GC 4547)” value ([1]; strain GC 4547) was greater than 128 µg/mL and the “MIC Coagulase Negative Staphylococcus (GC 4548)” value ([1]; strain GC 4548) was greater than 128 µg/mL. For the same compound, the “MIC Coagulase Negative Staphylococcus (GC 4549)” value ([1]; strain GC 4549) was greater than 128 µg/mL, the “MIC Coagulase Negative Staphylococcus (GC 4551)” value ([1]; strain GC 4551) was greater than 128 µg/mL and the “MIC Streptococcus agalactiae (GC 4564)” value [2] was greater than 128 µg/mL. The “MIC Streptococcus pneumoniae (ATCC 6301)” value [2] was 128 µg/mL (≈ 88.2 µM), the “MIC Streptococcus pneumoniae (GC 1894)” value [2] was 128 µg/mL (≈ 88.2 µM) and the “MIC Streptococcus pneumoniae (GC 4565)” value [2] was 128 µg/mL (≈ 88.2 µM). For the same compound, the “MIC Streptococcus pyogenes (GC 4563)” value [2] was greater than 128 µg/mL, the “MIC Streptococcus pneumoniae (ATCC 6301)” value ([2]; strain ATCC 6301) was 128 µg/mL (≈ 88.2 µM) and the “MIC Streptococcus pneumoniae (GC 1894)” value ([2]; strain GC 1894) was 128 µg/mL (≈ 88.2 µM). For the same compound, the “MIC Streptococcus pyogenes (GC 4563)” value ([2]; strain GC 4563) was greater than 128 µg/mL, the “MIC Streptococcus agalactiae (GC 4564)” value ([2]; strain GC 4564) was greater than 128 µg/mL and the “MIC Streptococcus pneumoniae (GC 4565)” value ([2]; strain GC 4565) was 128 µg/mL (≈ 88.2 µM). For the same compound, the “MIC Enterococcus avium (GC 4558)” value ([3]; Enterococcus avium (GC 4558)) was 128 µg/mL (≈ 88.2 µM), the “MIC Enterococcus faecalis (ATCC 29212)” value ([3]; Enterococcus faecalis (ATCC 29212)) was greater than 128 µg/mL and the “MIC Enterococcus faecalis (GC 4552)” value ([3]; Enterococcus faecalis (GC 4552)) was greater than 128 µg/mL. For the same compound, the “MIC Enterococcus faecalis (GC 4553)” value ([3]; Enterococcus faecalis (GC 4553)) was 128 µg/mL (≈ 88.2 µM), the “MIC Enterococcus faecalis (GC 4554)” value ([3]; Enterococcus faecalis (GC 4554)) was greater than 128 µg/mL and the “MIC Enterococcus faecalis (GC 6189)” value ([3]; Enterococcus faecalis (GC 6189)) was greater than 128 µg/mL. For the same compound, the “MIC Enterococcus faecium (GC 2243)” value ([3]; Enterococcus faecium (GC 2243)) was greater than 128 µg/mL, the “MIC Enterococcus faecium (GC 4556)” value ([3]; Enterococcus faecium (GC 4556)) was greater than 128 µg/mL and the “MIC Enterococcus faecium (GC 4557)” value ([3]; Enterococcus faecium (GC 4557)) was 128 µg/mL (≈ 88.2 µM). For the same compound, the “MIC Enterococcus avium (GC 4558)” value [3] was 128 µg/mL (≈ 88.2 µM), the “MIC Enterococcus faecalis (ATCC 29212)” value [3] was greater than 128 µg/mL and the “MIC Enterococcus faecalis (GC 2242)” value [3] was greater than 128 µg/mL. For the same compound, the “MIC Enterococcus faecalis (GC 2691)” value [3] was greater than 128 µg/mL, the “MIC Enterococcus faecalis (GC 3059)” value [3] was greater than 128 µg/mL and the “MIC Enterococcus faecalis (GC 4552)” value [3] was greater than 128 µg/mL. The “MIC Enterococcus faecalis (GC 4553)” value [3] was 128 µg/mL (≈ 88.2 µM), the “MIC Enterococcus faecalis (GC 4554)” value [3] was greater than 128 µg/mL and the “MIC Enterococcus faecalis (GC 6189)” value [3] was greater than 128 µg/mL. For the same compound, the “MIC Enterococcus faecium (GC 2243)” value [3] was greater than 128 µg/mL, the “MIC Enterococcus faecium (GC 4556)” value [3] was greater than 128 µg/mL and the “MIC Enterococcus faecium (GC 4557)” value [3] was 128 µg/mL (≈ 88.2 µM). For the same compound, the “MIC Enterococcus faecalis (GC 2242)” value ([3]; strain GC 2242) was greater than 128 µg/mL, the “MIC Enterococcus faecalis (GC 2691)” value ([3]; strain GC 2691) was greater than 128 µg/mL and the “MIC Enterococcus faecalis (GC 3059)” value ([3]; strain GC 3059) was greater than 128 µg/mL. The “MIC Escherichia coli (ATCC 25922)” value [4] was greater than 128 µg/mL, the “MIC Escherichia coli (GC 4559)” value [4] was greater than 128 µg/mL and the “MIC Escherichia coli (GC 4560)” value [4] was greater than 128 µg/mL.

Reference: patent US6914045B2, “Glycopeptide antibiotics” (Wyeth Holdings Corporation, priority 2001, dated 2005)
